# Measurements from ChEMBL document CHEMBL3885861, “Open TG-GATES”.
# Organism: Rattus norvegicus
# Test: Open TG-GATES - Regimen: Daily Repeat
# Assay type: toxicity, organism-based, Sprague-Dawley
# Design: regimen Daily Repeat, gender Male, age 6 weeks
# Conditions: in vivo, po, 0 mg/kg, route gavage, dose level Control; for APTT / Bas / Eos / Fbg / Hb / Ht / Lym / MCH / MCHC / MCV / Mono / Neu / PT / Plat / RBC / Ret / WBC: tissue Blood; for KIDNEY_L / KIDNEY_R / KIDNEY_TOTAL: tissue Kidney; for LIVER: tissue Liver; for A/G / ALP / ALT / AST / BUN / CRE / Ca / Cl / DBIL / GLC / IP / K / LDH / Na / PL / RALB / TBIL / TC / TG / TP / gamma-GTP: tissue Plasma
structure (smiles),measurement,setting,value
Cn1cnc([N+](=O)[O-])c1Sc1ncnc2nc[nH]c12 [AZATHIOPRINE],TERMINAL_BW,"72 h, time 3 day",200.7 g
same,APTT,"72 h, time 3 day",21.5 s
same,Bas,"72 h, time 3 day",0%
same,Eos,"72 h, time 3 day",0.8%
same,Fbg,"72 h, time 3 day",305.2 mg/dL
same,Hb,"72 h, time 3 day",13.5 g/dL
same,Ht,"72 h, time 3 day",39.8%
same,Lym,"72 h, time 3 day",80.4%
same,MCH,"72 h, time 3 day",21.4 pg
same,MCHC,"72 h, time 3 day",33.8%
same,MCV,"72 h, time 3 day",63.1 fL
same,Mono,"72 h, time 3 day",2.2%
same,Neu,"72 h, time 3 day",15.4%
same,PT,"72 h, time 3 day",16.3 s
same,Plat,"72 h, time 3 day",129.4 x10_4/uL
same,RBC,"72 h, time 3 day",630.8 x10_4/ul
same,Ret,"72 h, time 3 day",8%
same,WBC,"72 h, time 3 day",91.1 x10_2/uL
same,KIDNEY_L,"72 h, time 3 day",0.9 g
same,KIDNEY_R,"72 h, time 3 day",0.9 g
same,KIDNEY_TOTAL,"72 h, time 3 day",1.8 g
same,LIVER,"72 h, time 3 day",9.6 g
same,A/G,"72 h, time 3 day",1.2
same,ALP,"72 h, time 3 day",1684.4 IU/L
same,ALT,"72 h, time 3 day",44.2 IU/L
same,AST,"72 h, time 3 day",69.2 IU/L
same,BUN,"72 h, time 3 day",16.6 mg/dL
same,CRE,"72 h, time 3 day",0.1 mg/dL
same,Ca,"72 h, time 3 day",11.2 mg/dL
same,Cl,"72 h, time 3 day",105.8 meq/L
same,DBIL,"72 h, time 3 day",0 mg/dL
same,GLC,"72 h, time 3 day",194.4 mg/dL
same,IP,"72 h, time 3 day",7.2 mg/dL
same,K,"72 h, time 3 day",3.9 meq/L
same,LDH,"72 h, time 3 day",220.4 IU/L
same,Na,"72 h, time 3 day",144 meq/L
same,PL,"72 h, time 3 day",157.8 mg/dL
same,RALB,"72 h, time 3 day",3 g/dL
same,TBIL,"72 h, time 3 day",0.006 mg/dL
same,TC,"72 h, time 3 day",79.8 mg/dL
same,TG,"72 h, time 3 day",115.6 mg/dL
same,TP,"72 h, time 3 day",5.5 g/dL
same,gamma-GTP,"72 h, time 3 day",1 IU/L
same,TERMINAL_BW,"[…], time 7 day",246.2 g
same,TERMINAL_BW,"[…], time 14 day",269.5 g
same,TERMINAL_BW,"[…], time 28 day",356.1 g
same,APTT,"[…], time 7 day",21.9 s
same,Bas,"[…], time 7 day",0%
same,Eos,"[…], time 7 day",0.8%
same,Fbg,"[…], time 7 day",327.8 mg/dL
same,Hb,"[…], time 7 day",13.8 g/dL
same,Ht,"[…], time 7 day",39.8%
same,Lym,"[…], time 7 day",77.4%
same,MCH,"[…], time 7 day",21.9 pg
same,MCHC,"[…], time 7 day",34.7%
same,MCV,"[…], time 7 day",63 fL
same,Mono,"[…], time 7 day",2.4%
same,Neu,"[…], time 7 day",18.2%
same,PT,"[…], time 7 day",15.8 s
same,Plat,"[…], time 7 day",123.7 x10_4/uL
same,RBC,"[…], time 7 day",631.4 x10_4/ul
same,Ret,"[…], time 7 day",6.8%
same,WBC,"[…], time 7 day",129.6 x10_2/uL
same,APTT,"[…], time 14 day",22.4 s
same,Bas,"[…], time 14 day",0%
same,Eos,"[…], time 14 day",0.8%
same,Fbg,"[…], time 14 day",309 mg/dL
same,Hb,"[…], time 14 day",14.9 g/dL
same,Ht,"[…], time 14 day",41.2%
same,Lym,"[…], time 14 day",87%
same,MCH,"[…], time 14 day",21.4 pg
same,MCHC,"[…], time 14 day",36.1%
same,MCV,"[…], time 14 day",59.4 fL
same,Mono,"[…], time 14 day",1.4%
same,Neu,"[…], time 14 day",10%
same,PT,"[…], time 14 day",16.9 s
same,Plat,"[…], time 14 day",103.8 x10_4/uL
same,RBC,"[…], time 14 day",694.4 x10_4/ul
same,Ret,"[…], time 14 day",4%
same,WBC,"[…], time 14 day",113.3 x10_2/uL
same,APTT,"[…], time 28 day",23.7 s
same,Bas,"[…], time 28 day",0%
same,Eos,"[…], time 28 day",1%
same,Fbg,"[…], time 28 day",314.8 mg/dL
same,Hb,"[…], time 28 day",15.3 g/dL
same,Ht,"[…], time 28 day",44.8%
same,Lym,"[…], time 28 day",84.8%
same,MCH,"[…], time 28 day",19.6 pg
same,MCHC,"[…], time 28 day",34.3%
same,MCV,"[…], time 28 day",57.1 fL
same,Mono,"[…], time 28 day",1.4%
same,Neu,"[…], time 28 day",12%
same,PT,"[…], time 28 day",17.1 s
same,Plat,"[…], time 28 day",109.1 x10_4/uL
same,RBC,"[…], time 28 day",784 x10_4/ul
same,Ret,"[…], time 28 day",2.7%
same,WBC,"[…], time 28 day",122.9 x10_2/uL
same,KIDNEY_L,"[…], time 7 day",1 g
same,KIDNEY_R,"[…], time 7 day",1.1 g
same,KIDNEY_TOTAL,"[…], time 7 day",2.1 g
same,KIDNEY_L,"[…], time 14 day",1.1 g
same,KIDNEY_R,"[…], time 14 day",1.1 g
same,KIDNEY_TOTAL,"[…], time 14 day",2.2 g
same,KIDNEY_L,"[…], time 28 day",1.2 g
same,KIDNEY_R,"[…], time 28 day",1.2 g
same,KIDNEY_TOTAL,"[…], time 28 day",2.4 g
same,LIVER,"[…], time 7 day",11.4 g
same,LIVER,"[…], time 14 day",11.7 g
same,LIVER,"[…], time 28 day",14.3 g
same,A/G,"[…], time 7 day",1.2
same,ALP,"[…], time 7 day",1579.8 IU/L
same,ALT,"[…], time 7 day",42.4 IU/L
same,AST,"[…], time 7 day",72 IU/L
same,BUN,"[…], time 7 day",20.2 mg/dL
same,CRE,"[…], time 7 day",0.2 mg/dL
same,Ca,"[…], time 7 day",10.8 mg/dL
same,Cl,"[…], time 7 day",107.2 meq/L
same,DBIL,"[…], time 7 day",0 mg/dL
same,GLC,"[…], time 7 day",201.4 mg/dL
same,IP,"[…], time 7 day",6.6 mg/dL
same,K,"[…], time 7 day",4.3 meq/L
same,LDH,"[…], time 7 day",194.8 IU/L
same,Na,"[…], time 7 day",143.2 meq/L
same,PL,"[…], time 7 day",156.6 mg/dL
same,RALB,"[…], time 7 day",3 g/dL
same,TBIL,"[…], time 7 day",0.004 mg/dL
same,TC,"[…], time 7 day",80 mg/dL
same,TG,"[…], time 7 day",118.4 mg/dL
same,TP,"[…], time 7 day",5.5 g/dL
same,gamma-GTP,"[…], time 7 day",1.2 IU/L
same,A/G,"[…], time 14 day",1.1
same,ALP,"[…], time 14 day",1520.8 IU/L
same,ALT,"[…], time 14 day",35.6 IU/L
same,AST,"[…], time 14 day",66.8 IU/L
same,BUN,"[…], time 14 day",17.8 mg/dL
same,CRE,"[…], time 14 day",0.2 mg/dL
same,Ca,"[…], time 14 day",10.4 mg/dL
same,Cl,"[…], time 14 day",107 meq/L
same,DBIL,"[…], time 14 day",0 mg/dL
same,GLC,"[…], time 14 day",178.2 mg/dL
same,IP,"[…], time 14 day",6.5 mg/dL
same,K,"[…], time 14 day",4.3 meq/L
same,LDH,"[…], time 14 day",153.2 IU/L
same,Na,"[…], time 14 day",143.6 meq/L
same,PL,"[…], time 14 day",135.6 mg/dL
same,RALB,"[…], time 14 day",3 g/dL
same,TBIL,"[…], time 14 day",0.004 mg/dL
same,TC,"[…], time 14 day",63.4 mg/dL
same,TG,"[…], time 14 day",146.2 mg/dL
same,TP,"[…], time 14 day",5.8 g/dL
same,gamma-GTP,"[…], time 14 day",1.2 IU/L
same,A/G,"[…], time 28 day",1.1
same,ALP,"[…], time 28 day",1240.4 IU/L
same,ALT,"[…], time 28 day",44.8 IU/L
same,AST,"[…], time 28 day",71.6 IU/L
same,BUN,"[…], time 28 day",18.6 mg/dL
same,CRE,"[…], time 28 day",0.2 mg/dL
same,Ca,"[…], time 28 day",10.3 mg/dL
same,Cl,"[…], time 28 day",106.6 meq/L
same,DBIL,"[…], time 28 day",0 mg/dL
same,GLC,"[…], time 28 day",202.4 mg/dL
same,IP,"[…], time 28 day",5.5 mg/dL
same,K,"[…], time 28 day",3.7 meq/L
same,LDH,"[…], time 28 day",175.2 IU/L
same,Na,"[…], time 28 day",141.4 meq/L
same,PL,"[…], time 28 day",145.8 mg/dL
same,RALB,"[…], time 28 day",3.1 g/dL
same,TBIL,"[…], time 28 day",0.01 mg/dL
same,TC,"[…], time 28 day",66 mg/dL
same,TG,"[…], time 28 day",159.8 mg/dL
same,TP,"[…], time 28 day",6 g/dL
same,gamma-GTP,"[…], time 28 day",1 IU/L
